Here are results for four molecules from article PMC2424174, “Suppression of Tumor Growth and Angiogenesis by a Specific Antagonist of the Cell-Surface Expressed Nucleolin” (PLoS ONE, 2008).

Marks after values point to notes of the source that are not given here.

The test system of series [1] is CD31 endothelial marker in tumors. The series can be described thus: Tumor vascularization, CD31 immunohistochemistry. In kind it is in vivo, mouse. The settings on record: CD31 staining; HB-19 5 mg/kg or 5-FU 40 mg/kg, intraperitoneal, 8 weeks; compared to untreated tumors. The procedure:
Figure 9 Reduced density of blood vessels in HB-19 treated tumor-bearing mice. Sections of tumors recovered from mice, untreated control and treated with either HB-19 or 5-FU (experiment described in Figure 8B) were stained with antibodies against the CD31 endothelial marker and analyzed by fluorescence microscopy. […] Angiogenesis was quantified by image analysis of CD31-labeled endothelial cells.
Immediately after surgical resection, tumors, were frozen in liquid nitrogen and fixed for 20 min in acetone at 4°C or fixed with 4% PFA for paraffin inclusion. The sections of 8 µm were re-hydrated and saturated in PBS containing 1% BSA and 2% normal goat serum. To visualize tumor endothelial cells, sections were incubated with a Rat anti-mouse CD31 monoclonal antibody (1∶50) in saturation buffer 1 hour at room temperature. After two washes in PBS, sections were incubated for 1 hour at room temperature with biotinylated goat anti-Rat IgG (1∶1000 dilution; Chemicon International Inc., Temecula, CA) in saturation buffer, followed by three washes in PBS and incubation with the avidin-biotinylated-alkaline phosphatase complex (Vector Laboratories). […] Angiogenesis was quantified by Image analysis of CD31-labeled endothelial cells. The EC density in each field was expressed as the ratio of EC area/total area examined ×100 (%). […]

Series [2] concerns MDA-MB-435 tumor-cell xenografts. The series can be described thus: MDA-MB-435 xenograft in nude mice. In kind it is in vivo, human. The settings on record: 5-FU 40 mg/kg, intraperitoneal, 3 times/week, 8 weeks, n = 10. The method, then:
Figure 8 HB-19 inhibits tumor growth in the nude mice. (A) HB-19 inhibits the growth of MDA-MB-231 tumor-cell xenografts. Cells (2×10^6) were injected subcutaneously into the right flank of female nude mice. Two weeks later, mice with a palpable tumor of approximately 40 mm^3 in volume were randomly separated into three groups (n = 5) and were given peritumoral injections 3 times/week of 0.1 ml PBS alone (Control), HB-19 (5 mg/kg), or Tamoxifen (Tmx) 10 mg/kg) for 6 weeks. (B) HB-19 inhibits the growth of MDA-MB-435 tumor-cell xenografts. Cells (1×10^6) were injected in the mammary fat pad of female nude mice. Two weeks later, mice with a palpable tumor were randomly separated into three groups (n = 10) and were given intraperitoneal injections 3 times/week of 0.1 ml PBS alone (Control), HB-19 (5 mg/kg), or 5-fluouracil (5-FU, 40 mg/kg) for 8 weeks. At the end of each experiment (in A and B), mice were sacrificed and the tumors were excised and weighed. The results are presented as the mean weight ±standard deviation (±S.D.) obtained from the number of mice in each group. (C, D) Inhibition of tumor development in mice treated by intraperitoneal (i.p.) and subcutaneous (s.c.) administration of HB-19. MDA-MB-231 tumor bearing mice in three groups (n = 10) were treated with HB-19 (10 mg/kg) by i.p. or s.c. injections, 3 times/week for 28 days. […]

A short description of series [3]: Blood cell count in tumor bearing mice. Type of series: in vivo, mouse. The settings on record: 3 times/week, 8 weeks. The method, then:
(§1) Figure 8 HB-19 inhibits tumor growth in the nude mice. (A) HB-19 inhibits the growth of MDA-MB-231 tumor-cell xenografts. Cells (2×10^6) were injected subcutaneously into the right flank of female nude mice. Two weeks later, mice with a palpable tumor of approximately 40 mm^3 in volume were randomly separated into three groups (n = 5) and were given peritumoral injections 3 times/week of 0.1 ml PBS alone (Control), HB-19 (5 mg/kg), or Tamoxifen (Tmx) 10 mg/kg) for 6 weeks. (B) HB-19 inhibits the growth of MDA-MB-435 tumor-cell xenografts. Cells (1×10^6) were injected in the mammary fat pad of female nude mice. Two weeks later, mice with a palpable tumor were randomly separated into three groups (n = 10) and were given intraperitoneal injections 3 times/week of 0.1 ml PBS alone (Control), HB-19 (5 mg/kg), or 5-fluouracil (5-FU, 40 mg/kg) for 8 weeks. At the end of each experiment (in A and B), mice were sacrificed and the tumors were excised and weighed. The results are presented as the mean weight ±standard deviation (±S.D.) obtained from the number of mice in each group. (C, D) Inhibition of tumor development in mice treated by intraperitoneal (i.p.) and subcutaneous (s.c.) administration of HB-19. MDA-MB-231 tumor bearing mice in three groups (n = 10) were treated with HB-19 (10 mg/kg) by i.p. or s.c. injections, 3 times/week for 28 days. […] Statistical significance: *p<0.05, **p<0.01, ***p<0.001.
Blood samples were collected by cardiac puncture. Hematocrit level, white blood cells and platelets count were determined individually in whole blood anticoagulated with EDTA (1 mM) at room temperature. Blood cell count was analyzed with an automated flow cytometric blood cell counter (Cell-Dyn 3500, Abbott Laboratories, Rungis, France).

The subject of series [4] is MDA-MB-231 tumor-cell xenografts. The series can be described thus: MDA-MB-231 xenograft in nude mice. In kind it is in vivo, human. The conditions noted are these: tamoxifen 10 mg/kg, peritumoral, 3 times/week, 6 weeks, n = 5. The procedure: as §1
In series [5] the test system is surface nucleolin. Put plainly: Complex of HB-19/Btn with surface nucleolin, HUVECs, avidin-agarose and immunoblot. Type of series: binding, human. The settings on record: 45 min, 20°C, 0-12 µM HB-19/Btn. The procedure: Figure 3 Specific binding and entry of HB-19 in endothelial cells. (A) HB-19/Btn forms a stable complex with nucleolin expressed on the surface of HUVECs. Cells were incubated (45 min, 20°C) with 0, 1, 2, 4, 8 and 12 µM of HB-19/Btn before preparation of surface/cytoplasmic and nuclear extracts and recovery of surface nucleolin from the surface/cytoplasmic extracts as in Figure 2A. Material extracted from 2×10^7 and 2×10^6 cells was analyzed in panels Surface and Surface/Cytoplasm or Nucleus, respectively. Immunoblotting was with the anti-nucleolin mAb D3. (B) The specific binding of HB-19/Btn to HUVECs. The binding of 1 µM HB-19/Btn was studied at 4 °C by FACScan analysis. To show the specificity of binding, the reaction was carried out in the absence or presence of 50 µM HB-19, F3, or 9Arg peptides. The ordinate gives the relative cell number, whereas the abscissa gives the relative fluorescence intensity. (C) HB-19 entry in HUVECs. Cells were incubated with 5 µM of HB-19/Btn (1 hour, 37°C) before fixation in PFA (for surface binding) or PFA-Triton (for entry), respectively. […]
Cells were passaged in DMEM culture medium containing 10% FCS in 75 cm^2 flasks. […] The purified surface nucleolin was eluted in the electrophoresis sample buffer containing SDS and analyzed by SDS–polyacrylamide gel electrophoresis (PAGE).
In general terms: In western blotting, separated proteins are transferred to a membrane and probed.

In series [6] the test system is surface nucleolin. The series can be described thus: Complex of HB-19/Btn with surface nucleolin, MDA-MB-231 cells, avidin-agarose and immunoblot. Type of series: binding, human. The conditions noted are these: 45 min, 20°C, 0-12 µM HB-19/Btn. The procedure:
Figure 2 HB-19 binds nucleolin expressed on the surface of tumor cells and causes reduction of cytoplasmic/surface but not nuclear nucleolin. (A) HB-19/Btn forms a stable complex with nucleolin expressed on the surface of cells. MDA-MB-231 cells were incubated (45 min, 20°C) with 0, 1, 2, 4, 8 and 12 µM of HB-19/Btn before preparation of surface/cytoplasmic (i.e., nucleus-free) and nuclear extracts, [28]. Samples of surface nucleolin (purified using surface/cytoplasmic extracts from 2×10^7 cells) and crude surface/cytoplasmic and nuclear extracts (from 2×10^6 cells) were analyzed by immunoblotting for the detection of nucleolin using mAb D3. (B) Specific reduction of surface/cytoplasmic nucleolin in HB-19 treated cells. […] Material from 2×10^6 cells (Untreated or HB-19 treated cells as indicated − or + signs, respectively) was analyzed by immunoblotting for the detection of nucleolin. […] The intensity of nucleolin protein bands quantified by using the NIH image software indicated 75% and 93% reduction of surface/cytoplasmic nucleolin in HB-19 treated cells at 24 and 48 hours, respectively, compared to the corresponding untreated cells. […] MDA-MB-231 cells cultured in the absence (Control Cells) or presence of 10 µM of HB-19 for 48 hours (HB-19 Treated Cells) were fixed in PFA-Triton and processed for fluorescence microscopy. […]

The test system of series [7] is nuclear nucleolin. The settings on record: cited from earlier work. The method, then:
(§2) Previously, guanosine-rich phosphodiester oligonucleotides (referred to as GROs) and endostatin have been reported to exert antitumoral and antiangiogenic activity, respectively, through interaction with surface nucleolin [21], [41], [42]. […] At 20°C, GRO ...

The subject of series [8] is tumor cells. The settings on record: cited from earlier work. The procedure: as §2
The subject of series [9] is nucleolin. The conditions noted are these: cited from earlier work. The source says: HB-19 presents pentavalently the tripeptide Kψ(CH2N)PR in which the reduced peptide bond provides high stability against serum proteases (Figure 1). HB-19 forms a stable complex with the cell-surface expressed nucleolin and is internalized by an active process. This le ... || The interaction of HB-19 with surface nucleolin was investigated using human breast cancer MDA-MB-231 tumor cells and human umbilical vein endothelial cells (HUVECs). […] Similarly, HB-19/Btn binds and forms a stable complex with surface nucleolin in a dose-dependent manner in both types of cell ... || Previously, guanosine-rich phosphodiester oligonucleotides (referred to as GROs) and endostatin have been reported to exert antitumoral and antiangiogenic activity, respectively, through interaction with surface nucleolin [21], [41], [42]. […] At 20°C, GRO ... || (+ 1 further places)

For series [10], the system named is cells (surface nucleolin). The settings on record: cited from earlier work. An excerpt: The importance of cell-surface nucleolin in cancer biology is highlighted by many studies showing that ligands of nucleolin play critical role in tumorigenesis and angiogenesis, [16]. For example, among surface nucleolin binding growth factors: midkine and PTN can transform cells, whereas on endothelial cells they exert both mitogenic and angiogenic effect. Laminin-1 that induces differentiation of cells binds surface nucleolin, while urokinase that is implicated in mechanisms regulating pericellular proteolysis, cell-surface adhesion, and mitogenesis binds and is co-internaliz ... || Previously, guanosine-rich phosphodiester oligonucleotides (referred to as GROs) and endostatin have been reported to exert antitumoral and antiangiogenic activity, respectively, through interaction with surface nucleolin [21], [41], [42]. […] At 20°C, GRO ...

`O=c1[nH]cc(F)c(=O)[nH]1` [5-FU, 5-fluouracil]: in series [1], the “inhibition of tumor vascularization” value is listed as “significantly inhibited tumor vascularization”. Besides, the “inhibition of tumor growth” value in series [2] was 66%. For the same molecule, in series [3] (5-FU 40 mg/kg, intraperitoneal), the leucopenia result is “toxic causing a significant degree of leucopenia” and the “reduction in the number of lymphocytes” value was found to be 55%. Besides, in series [3] (HB-19 5 mg/kg or 5-FU 40 mg/kg i.p., mean ± SD, n = 10, untreated 0.01±0.02), the Eosinophils was 0.05±0.04 ×10^3/µl. Further, the Basophils in [3] (HB-19 5 mg/kg or 5-FU 40 mg/kg i.p., mean ± SD, n = 10, untreated 0.10±0.06) is 0.10±0.04 ×10^3/µl. In addition, the Monocytes in series [3] (HB-19 5 mg/kg or 5-FU 40 mg/kg i.p., mean ± SD, n = 10, untreated 0.20±0.09) is listed as 0.22±0.09 ×10^3/µl. Besides, the Neutrophils in series [3] (HB-19 5 mg/kg or 5-FU 40 mg/kg i.p., mean ± SD, n = 10, untreated 0.89±0.39, 5-FU p<0.05) is 0.53±0.15 * ×10^3/µl. In [3] (HB-19 5 mg/kg or 5-FU 40 mg/kg i.p., mean ± SD, n = 10, untreated 1.84±0.78, 5-FU p<0.01), the Lymphocytes is given as 0.83±0.22 ** ×10^3/µl. Also, in series [3] (HB-19 5 mg/kg or 5-FU 40 mg/kg i.p., mean ± SD, n = 10, untreated 3.05±1.29, 5-FU p<0.05), the Leukocytes is reported as 1.73±0.37 * ×10^3/µl. Also, the Erythrocytes in [3] (HB-19 5 mg/kg or 5-FU 40 mg/kg i.p., mean ± SD, n = 10, untreated 8.73±0.26, 5-FU p<0.0001) is on record as 7.60±0.30*** ×10^6/µl. Further, the Platelets in series [3] (HB-19 5 mg/kg or 5-FU 40 mg/kg i.p., mean ± SD, n = 10, untreated 1041±91) was 1042±59 ×10^3/µl.
For `CC/C(=C(\c1ccccc1)c1ccc(OCCN(C)C)cc1)c1ccccc1` [tamoxifen, reference compound], the “reduction of tumor mass” value in series [4] was determined as 80%.
Take “H2NLys-Lys-Lys-Gly-Pro-Lys-Glu-Lys-βAla-Lys(Btn)-βAlaCONH2 [HB-19/Btn, biotinylated HB-19 for recovery of surface nucleolin]”: the “concentration of maximum binding to surface nucleolin” value in series [5] and in [6] was 8 to 12 µM each time.
endostatin: the “phosphorylation of nuclear nucleolin” value in [7] is “inhibits phosphorylation of nuclear nucleolin”. In series [8], the “direct effect on tumor cell growth” value was “does not directly affect tumor cell growth”. Besides, the “heparan sulfate proteoglycan requirement of binding to surface nucleolin” value in [9] is on record as “endostatin but not HB-19 binding to surface nucleolin requires heparan sulfate proteoglycans”. The internalization entry in [10] is reported as “binds nucleolin on the surface of endothelial cells before translocation to the nucleus”.
